Residues, ends and D or L forms follow the SMILES beside them. *: point of attachment. Boc = CC(C)(C)OC(=O)*
Legend:
[1] = molecular target: recombinant tissue plasminogen activator (Homo sapiens, UniProt P00750); assay: Tissue plasminogen activator assay (S-2288 substrate); format: biochemical
Procedure: (§1) The specificity of the peptide aldehydes (8 through 12) was determined in vitro by measurement of their IC50 against other enzymes involved in hemostasis. A specific concentration of enzyme and its substrate were challenged with varying concentrations of inhibitor. […] Specific assay procedures used are presented below.
(§2) 96-well microtiter plates were prepared for use in these assays by incubating each well with 300 μL 1% bovine serum albumin (in deionized water) for 30 minutes at 37° C., then washing three times with deionized water.
(§3) The substrate was made up in deionized water prior to use.

human kallekrein = molecular target: T1, human kallekrein (Homo sapiens, UniProt P03952); assay: Kallikrein assay (S-2302 substrate); format: biochemical
T1 construct: 50 μL of 4 to 9 nM human kallekrein
T1 sequence (P03952 391-638 limits assumed): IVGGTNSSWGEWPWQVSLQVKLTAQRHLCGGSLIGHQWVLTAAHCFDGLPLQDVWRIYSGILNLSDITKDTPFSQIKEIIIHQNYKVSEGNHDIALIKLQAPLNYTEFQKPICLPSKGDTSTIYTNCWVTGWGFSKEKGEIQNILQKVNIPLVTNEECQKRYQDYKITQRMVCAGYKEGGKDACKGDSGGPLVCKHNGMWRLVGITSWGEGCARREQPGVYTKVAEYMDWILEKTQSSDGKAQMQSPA
T1 sequence (P03952 20-390 partner limits assumed): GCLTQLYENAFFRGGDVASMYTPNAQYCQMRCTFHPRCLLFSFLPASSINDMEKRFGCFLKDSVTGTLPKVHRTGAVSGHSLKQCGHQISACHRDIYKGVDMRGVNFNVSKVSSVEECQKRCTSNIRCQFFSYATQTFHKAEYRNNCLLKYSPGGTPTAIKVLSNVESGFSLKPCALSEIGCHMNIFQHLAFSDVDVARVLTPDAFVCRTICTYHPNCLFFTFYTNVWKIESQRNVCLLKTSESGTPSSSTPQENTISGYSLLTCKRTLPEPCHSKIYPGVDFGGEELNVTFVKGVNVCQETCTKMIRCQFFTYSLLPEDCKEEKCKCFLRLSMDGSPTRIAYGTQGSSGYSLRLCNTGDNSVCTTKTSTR
Procedure: as §1, §2, §3

[2] = molecular target: T2, Activated human Protein C (Homo sapiens, UniProt P04070); assay: Protein C assay (Pefachrome PC substrate); format: biochemical
T2 construct: from tissue
T2 sequence (P04070 212-461 limits assumed): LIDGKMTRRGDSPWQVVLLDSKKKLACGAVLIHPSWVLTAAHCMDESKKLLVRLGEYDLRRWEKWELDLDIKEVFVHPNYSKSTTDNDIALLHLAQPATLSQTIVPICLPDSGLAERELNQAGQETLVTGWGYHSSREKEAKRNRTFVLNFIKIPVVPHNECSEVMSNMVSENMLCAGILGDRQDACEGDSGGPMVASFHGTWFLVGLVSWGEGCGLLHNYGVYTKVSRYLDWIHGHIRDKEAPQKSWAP
T2 sequence (P04070 43-197 partner limits assumed): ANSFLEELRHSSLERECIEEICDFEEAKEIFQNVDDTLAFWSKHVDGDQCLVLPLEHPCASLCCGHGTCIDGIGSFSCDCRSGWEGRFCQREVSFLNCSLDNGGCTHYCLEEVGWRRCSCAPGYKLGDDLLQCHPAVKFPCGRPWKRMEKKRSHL
Procedure: as §1, §2
Enzyme activity was determined using as substrate, Pefachrome PC [δ-carbobenzoloxy-D-lysyl-L-prolyl-L-arginine-p-nitroanilide], purchased from Centerchem, Inc. The substrate was made up in deionized water prior to use. Protac used to activate Protein C was obtained from American Diagnostics.

bovine thrombin = molecular target: T3, bovine thrombin (Bos taurus, UniProt P00735); assay: Thrombin assay (S-2238 substrate); format: biochemical
T3 construct: 50 μL 20 nM bovine thrombin
Procedure: (§4) The specificity of the peptide aldehydes (8 through 12) was determined in vitro by measurement of their IC50 against other enzymes involved in hemostasis. A specific concentration of enzyme and its substrate were challenged with varying concentrations of inhibitor. IC50 is that concentration of inhibitor giving 50% inhibition of substrate turnover, under the assay conditions. Specific assay procedures used are presented below.
as §2
Enzyme activity was determined using as substrate, S-2238 [D-phenylalanyl-L-pipecolyl-L-arginine-p-nitroanilide dihydrochloride], purchased from Kabi Diagnostica. The substrate was made up in deionized water prior to use.
The assay was run by combining in appropriate wells 50 μL TBS and 50 μL inhibitor in TBS or TBS alone and 50 μL 20 nM bovine thrombin (or TBS as background control), incubating this mixture for 30 minutes at room temperature, adding 50 μL 1 mM S-2238, incubating for an additional 30 minutes at room temperature, then reading the absorbance of the wells at 405 nm on a microtiter plate reader set with background substraction at 650 nm.

bovine trypsin = molecular target: T4, bovine trypsin (Bos taurus, UniProt P00760); assay: Trypsin assay, IC50 (S-2222 substrate); format: biochemical
T4 sequence (P00760 24-246): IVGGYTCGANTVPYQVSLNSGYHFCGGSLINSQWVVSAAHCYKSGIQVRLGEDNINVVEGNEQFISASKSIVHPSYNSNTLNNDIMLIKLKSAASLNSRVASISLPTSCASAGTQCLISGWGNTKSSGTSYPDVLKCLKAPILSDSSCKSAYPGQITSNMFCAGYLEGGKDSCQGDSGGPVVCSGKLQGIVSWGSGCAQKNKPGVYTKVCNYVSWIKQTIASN
Procedure: as §1, §2, §3

Factor VIIa:rTF complex = molecular target: T5, Factor VIIa:rTF complex (Homo sapiens, UniProt P08709); assay: Factor VIIa assay (S-2288 substrate); format: biochemical
T5 construct: 2.5 ml 400 nMhuman Factor VIIa
T5 sequence (P08709 213-466 limits assumed): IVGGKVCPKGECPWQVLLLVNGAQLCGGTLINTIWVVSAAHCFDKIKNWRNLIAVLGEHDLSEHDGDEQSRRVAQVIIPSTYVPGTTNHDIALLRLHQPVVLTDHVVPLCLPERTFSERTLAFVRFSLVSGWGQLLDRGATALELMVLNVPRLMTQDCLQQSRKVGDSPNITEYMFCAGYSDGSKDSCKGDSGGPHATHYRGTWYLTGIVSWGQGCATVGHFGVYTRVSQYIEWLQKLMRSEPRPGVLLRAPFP
T5 sequence (P08709 61-212 partner limits assumed): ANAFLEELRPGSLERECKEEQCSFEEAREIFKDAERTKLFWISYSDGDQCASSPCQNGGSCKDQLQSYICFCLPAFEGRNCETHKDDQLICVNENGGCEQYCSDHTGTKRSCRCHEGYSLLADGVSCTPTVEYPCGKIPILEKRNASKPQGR
T5 sequence (P13726 33-295 partner): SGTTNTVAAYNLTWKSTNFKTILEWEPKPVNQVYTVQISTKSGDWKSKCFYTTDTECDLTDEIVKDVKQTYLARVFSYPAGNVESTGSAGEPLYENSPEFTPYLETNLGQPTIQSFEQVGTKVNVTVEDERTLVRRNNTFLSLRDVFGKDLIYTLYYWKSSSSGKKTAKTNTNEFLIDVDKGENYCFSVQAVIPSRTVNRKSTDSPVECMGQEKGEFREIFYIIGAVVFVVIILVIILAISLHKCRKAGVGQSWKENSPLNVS
Procedure: as §4, §2
Enzyme activity was determined using as substrate, S-2288 [D-isoleucyl-L-prolyl-L-arginine-p-nitroanilide dihydrochloride], purchased from Kabi Diagnostica. The substrate was made up in deionized water prior to use.
Both solutions were then incubated for 30 minutes at room temperature before use in the assay.
The assay was run by combining in appropriate wells 50 μL inhibitor in TBS or TBS alone and 100 μL of Factor VIIa:rTF complex or background control, incubating this mixture for 30 minutes at room temperature, adding 50 μL of 2 mM S-2288, incubating for an additional 30 to 60 minutes at room temperature, then reading the absorbance of the wells at 405 nm on a microtiter plate reader set with background substraction at 650 nm.

[3] = system: caerulein-induced pancreatitis in balb/c mice; assay: Animal model for pancreatitis: caerulein-induced pancreatitis, serum amylase; format: in vivo; settings: caerulein 3 × 100 μg/kg IP, inhibitor 50 mg/kg IP, blood 4 hours after last inhibitor injection, saline + caerulein 64.4 ± 14.4, control 10.4 ± 1.6
Procedure: The efficacy of the compounds of the present invention as a prophylactic treatment for pancreatitis is assessed in vivo using the chemically-induced animal model of Niederau et al., Gastroenterology 88:1192-1204 (1985).
Pancreatitis was induced in fasting male balb/c mice weighing between 18 to 20 g by giving them three IP injections of caerulein, with each dose at 100 μg/kg body weight. The injections of each were given at two hour intervals over a 6 hour period. The ability of N-Boc-L-Asp-Pro-Arg-al (compound 9) to inhibit the induced pancreatitis was tested by injection into caerulein-treated mice. The inhibitor was dissolved into TBS, then injected IP into the mice. The first injection was given 1/4 hour prior to the caerulein treatment, then one hour after each caerulein injection. Inhibitor dose tested was 50 mg/kg body weight.
A blood serum sample was drawn and tested for amylase concentration. The blood sample was obtained by periorbital bleeding into heparized tubes 4 hours after the last injection of inhibitor. After centrifuging to remove the blood cells, the serum was the diluted 1:10 in TBS and assayed with Sigma Diagnostics Amylase reagent. The kinetic change in absorbance was measured at 405 nm for 1 minute, then was convereted into U/ml amylase activity.

[4] = 30 min preincubation, room temperature, tested 0.025-25 μM, Inact. = no inhibition at highest concentration
[5] = [IC50 for Trypsin/IC50 for other enzyme]×100, lower = more trypsin selective

Sequence of recombinant tissue plasminogen activator (P00750 36-562): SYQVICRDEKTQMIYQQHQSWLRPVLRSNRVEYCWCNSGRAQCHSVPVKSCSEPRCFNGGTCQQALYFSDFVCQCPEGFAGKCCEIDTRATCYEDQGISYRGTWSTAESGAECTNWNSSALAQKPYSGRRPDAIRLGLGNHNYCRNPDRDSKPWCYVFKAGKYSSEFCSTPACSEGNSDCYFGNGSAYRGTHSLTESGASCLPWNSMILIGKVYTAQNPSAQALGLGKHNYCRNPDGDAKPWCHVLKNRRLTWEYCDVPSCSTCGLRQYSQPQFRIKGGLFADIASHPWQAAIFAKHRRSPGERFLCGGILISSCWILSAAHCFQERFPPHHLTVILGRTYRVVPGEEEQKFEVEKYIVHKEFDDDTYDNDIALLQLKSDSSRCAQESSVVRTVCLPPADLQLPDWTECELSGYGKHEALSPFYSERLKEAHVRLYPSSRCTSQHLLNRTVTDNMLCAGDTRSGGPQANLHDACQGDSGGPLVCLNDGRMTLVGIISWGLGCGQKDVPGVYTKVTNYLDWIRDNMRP

IC50 tPA [1, 4]: Inact.
Calculated % Selectivity tPA [1, 5]: 0%
IC50 (human kallekrein; [4]): 17 µM
Calculated % Selectivity Kallikrein (human kallekrein; [5]): 0.08%
IC50 Protein C [2, 4]: Inact.
Calculated % Selectivity Protein C [2, 5]: 0%
IC50 (bovine thrombin; [4]): 17 µM
Calculated % Selectivity Thrombin (bovine thrombin; [5]): 0.08%
IC50 (bovine trypsin; 30 min preincubation, room temperature, tested 0.025-25 μM): 0.014 µM
Calculated % Selectivity Trypsin (bovine trypsin; trypsin relative to itself (reference, 100 by definition)): 100%
IC50 VIIA (Factor VIIa:rTF complex; [4]): Inact.
Calculated % Selectivity VIIa (Factor VIIa:rTF complex; [5]): 0%
SMILES: CC(C)(C)OC(=O)N[C@@H](CC(=O)O)C(=O)N1CCC[C@H]1C(=O)N[C@H](C=O)CCCNC(=N)N [Compound 9, N-t-butyloxycarbonyl-L-Asp-L-Pro-L-argininal] (Boc-Asp-Pro-Arg-aldehyde)
Amylase Activity, Mean ± S.D [3]: 40.8 ± 5.2 U/ml

From patent US5534498A, “Trypsin inhibitors” (Corvas International, Inc., priority 1993, dated 1996)
